The subject of this assay is male Wistar rats. The assay is described as follows: Antiinflammatory activity by air pouch technique (croton oil). It counts as in vivo. As to conditions: Rattus norvegicus, 192 h, 25 mg/kg/day into the pouch in 5% gum arabic, once a day for 6 days, amount of exudate on day 8 vs control group, ** p<0.01, * p<0.05, read-out: Antiinflammatory rate (%). How it is done:
The antiinflammatory activity of the compound of the invention was determined by an air pouch technique generally comforming to the method described in the literature [Proc. Soc. Exp. Biol. Med., 82 , 328-333, 1953].
The test was carried out using male Wistar rats (average body weight 200 g, 7 animals per group). A thick paper sheet with an oval cutout (2 x 5 cm) was attached to the clipped back of the animal under pentobarbital anesthesia. The skin was picked up through the central cutout and 10 ml of air was injected subcutaneously to prepare an air pouch. Then, 1 ml of 2% croton oil, as a phlogogenic agent, was injected into the pouch. The paper sheet was removed and the animal was gently rotated in order that the croton oil would be thoroughly contacted with the inner wall of the pouch.
The test compound suspended in 5% gum arabic was administered into the pouch (25 mg/kg/day) once a day for 6 days beginning the day after preparation of the pouch. The group of animals subjected to the above treatment was designated as the experimental group.
On day 8, the animals were bled to death and the amount (ml) of exudate in the pouch was measured. The antiinflammatory rate was calculated with the result in the control group ( a group not receiving the test compound) as a reference according to the following equation. [formula]
Turning to `CC(=O)OCC(C)(C)c1cc(N(C(C)=O)c2nccs2)cc(C(C)(C)C)c1O` [Compound 14, 2-(2-acetoxy-1,1-dimethylethyl)-6-(1,1-dimethylethyl)-4-[N-acetyl-N-(2-thiazolyl)amino]phenol], the inhibition in vivo at 25 mg/kg/day stood at 51%.

In the case of `CC(C)(C)c1cc(Nc2nc(CC(=O)O)cs2)cc(C(C)(C)CO)c1O` [Compound 15, 2-[3-(1,1-dimethylethyl)-5-(1,1-dimethyl-2-hydroxyethyl)-4-hydroxyphenylamino]-4-thiazolylacetic acid], the inhibition in vivo at 25 mg/kg/day amounted to 32%.

Consider `CC(=O)OCC(C)(C)c1cc(Nc2nccs2)cc(C(C)(C)C)c1O` [Compound 13, 2-(2-acetoxy-1,1-dimethylethyl)-6-(1,1-dimethylethyl)-4-(2-thiazolylamino)phenol], for which the inhibition in vivo at 25 mg/kg/day came out at 60%.

With `CC(C)(C)c1cc(Nc2nccnn2)cc(C(C)(C)CO)c1O` [Compound 11], the inhibition in vivo at 25 mg/kg/day worked out at 20%.

With `CC(C)(C)c1cc(Nc2cccnc2)cc(C(C)(C)CO)c1O` [Compound 8], the inhibition in vivo at 25 mg/kg/day was 19%.

Turning to `CC(C)(C)c1cc(Nc2ncccn2)cc(C(C)(C)CO)c1O` [Compound 10], the inhibition in vivo at 25 mg/kg/day turned out to be 24%.

For `CC(C)(C)c1cc(Nc2cnccn2)cc(C(C)(C)CO)c1O` [Compound 1, 2-(1,1-dimethylethyl)-6-(1,1-dimethyl-2-hydroxyethyl)-4-pyrazinylaminophenol], the inhibition in vivo at 25 mg/kg/day worked out at 68%.

`CC(C)(C)c1cc(Nc2nccs2)cc(C(C)(C)CO)c1O` [Compound 3, 2-(1,1-Dimethylethyl)-6-(1,1-dimethyl-2-hydroxyethyl)-4-[N-(2-thiazolyl)amino]phenol]: the inhibition in vivo at 25 mg/kg/day was 71%.

In the case of `CC(C)(C)c1cc(Nc2ccccc2)cc(C(C)(C)CO)c1O` [Compound 6], the inhibition in vivo at 25 mg/kg/day was 14%.

The values are drawn from patent EP0414913A1, “p-AMINOPHENOL DERIVATIVE AND PRODUCTION AND APPLICATION THEREOF” (OTSUKA PHARMACEUTICAL FACTORY, INC., priority 1989, dated 1990).
